From patent publication US20110045065A1, “SUBSTANCE HAVING ANTIOXIDANT, GEROPROTECTIVE AND ANTI-ISCHEMIC ACTIVITY AND METHOD FOR THE PREPARATION THEREOF” (priority 2005, published 2011)

Experiments:
[1] = system: acute myocardial ischemia (occlusion of the coronary artery of rats); assay: Sizes of necrosis and ischemia zones in acute myocardial ischemia; assay type: in vivo, rat; conditions: rats, within 4 hours after occlusion of the coronary artery
Experimental: The experiments are carried out with non-pedigree male rats having a weight of 250-300 g, which have been anesthetized with sodium ethaminale (40 mg/kg intraperitoneally). A myocardial infarction was modeled for animals, transferred to controlled breathing, by ligation of a descending branch of the left-hand coronary artery to a level of the lower edge of an auricula atrii.
The sizes of necrosis zones and ischemia zones have been determined within 4 hours after occlusion of the coronary artery by a differential indicator method, the principle of which is based on separate quantitative determination of Evans' blue (indicator of an ischemia zone) and red phormazane (indicator of an necrosis zone).

[2] = Antiradical activity by chemiluminescence (rate constant k7); assay type: physicochemical; conditions: speed constant of reaction with ethyl-benzene peroxide radicals
Experimental: The efficiency of 3-hydroxypyridine derivatives as inhibitors of free radical reactions was determined by hemiluminescent method by means of measurement of speed constants of their reaction with ethyl-benzene k7 peroxide radicals.
The measurements of intensity of chemiluminescence (HL) have been carried out with an apparatus CNK-7, designed and made by IHF RAN USSR. A photomultiplier FAU-38 is used as an optical receiver. The fixed concentration of radicals during oxidation of […] (cumole) is controlled by an initiator being azo-bis-isobutyronitrile.
In order to increase HL emission the activator chelate Eu (europium tristenoyl triphtoroacetonate with 1,10-phenatroline) has been used that has allowed to conduct measurements at low speed values of radical initiation (W1=10^−8-10^−9 mol/I.s.) and, therefore, at small amounts of added sample. A weighed amount of samples studied was diluted in an suitable solvent (chlorobenzene or acetonitrile) and a small amount of the prepared solution (0.1-0.25 ml) was added to the reaction mixture (5-6 ml), arranged in a temperature-controlled reaction vessel of the HL-device. The change of emission intensity was recorded.

[3] = system: lipofuscin induced cardiolipin photoperoxidation; assay: Inhibition of lipofuscin induced cardiolipin liposome photoperoxidation; assay type: biochemical, human; conditions: for Concentration of TBK-active products / Inhibition: 2 mM compound
Experimental: Liposomes are prepared from methanolic solution of cardiolipin (initial concentration: 5 mg/ml) by evaporation of methanol and solubilization of cardiolipin in a phosphate buffer. A mixture comprising a suspension of liposomes and lipofuscin granules, isolated from tissue of a retinal pigmentary epithelium of a human eye, is subjected to irradiation with intensive blue light under constant stirring. Concentration of lipid peroxidation products (TBK-active products) is determined after 20, 40, 60 and 90 minutes. The experimental sample contained 2 mM of a solution of compound Ic, or 2 mM of a solution of mexydole.

[4] = system: external segments of photoreceptor cells; assay: Ascorbate-induced peroxidation of external segments of photoreceptor cells; assay type: biochemical, pig; conditions: for Inhibition: 30 min of reacting; for Concentration of TBK-active products: 17 mM compound, 0.5 mM ascorbic acid
Excerpt: The external segments of photoreceptor cells are obtained from pig retinas according to standard procedure, using methods of differential centrifuging in a saccharose density gradient. […] Subsequently, the process was stopped by 15% trichloroacetic acid, and the concentration of TBK-active products has been determined. Samples being free of compound Ic were used as a control.
In these experiments a comparison of the speed of ascorbate-induced peroxidation of external segments of photoreceptor cells of pig eyes has been carried out, said comparison being determined with respect to the accumulation of TBK-active products in the presence of different compound I salts.

## CCc1ccc(O)c(C)n1.O=C(O)CCC(=O)O [Mexydole, 2-methyl-6-ethyl-3-hydroxypyridine succinate, reference compound]
[1]; 26 mg/kg
  Ratio of necrosis zone to ischemia zone: 46 ± 5.6%
  Ratio of necrosis zone to total mass of the myocardium: 8 ± 1.4%
[2]
  k7 × 10^−4: 4.5 l/mol × sec
[3]; radiation time 0 min
  Concentration of TBK-active products: 1.83 nmol/mg lipid
  Inhibition: 0%
[3]; radiation time 20 min
  Concentration of TBK-active products: 2.84 nmol/mg lipid
  Inhibition: 5%
[3]; radiation time 40 min
  Concentration of TBK-active products: 3.5 nmol/mg lipid
  Inhibition: 0%
[3]; radiation time 60 min
  Concentration of TBK-active products: 4.5 nmol/mg lipid
  Inhibition: 0%
[3]; radiation time 90 min
  Concentration of TBK-active products: 5.0 nmol/mg lipid
  Inhibition: 7%
[3]; result in words
  Inhibiting / protective effect regarding phototoxic action of lipofuscin granules: practically did not show an inhibiting effect

## Cc1cc(C)c(O)c(C)n1.O=C(O)C(=O)O [Compound Ia, 2,4,6-trimethyl-3-oxypyridine oxalate]
[4]; compound 44 mM
  Speed of accumulation of TBK-active products for 30 min of reacting: 0 nmol/mg
  Inhibition: 100%

## O=C(NCCO[N+](=O)[O-])c1cccnc1 [Nicorandile]
[1]; 12 mg/kg
  Ratio of necrosis zone to ischemia zone: 42 ± 5.4%
  Ratio of necrosis zone to total mass of the myocardium: 10 ± 1.6%

## Cc1cc(C)c(O)c(C)n1.O=C(O)CC(=O)O [Compound Ib, 2,4,6-trimethyl-3-oxypyridine malonate]
[4]; compound 44 mM
  Speed of accumulation of TBK-active products for 30 min of reacting: 0.23 nmol/mg
  Inhibition: 70%
[4]; response time 0 min
  Concentration of TBK-active products: 1 relative units
[4]; response time 15 min
  Concentration of TBK-active products: 2.70 relative units
[4]; response time 30 min
  Concentration of TBK-active products: 5.09 relative units

## Cc1cc(C)c(O)c(C)n1.O=C(O)CC(O)C(=O)O [Compound Id, 2,4,6-trimethyl-3-oxypyridine malate]
[4]; compound 43 mM
  Speed of accumulation of TBK-active products for 30 min of reacting: 0.1 nmol/mg
  Inhibition: 87%
